“Also recorded” adds a separate entry of the source.
How the values were obtained:
GST Ya (α class) = experiment: Western blot of GST Ya (α-type) expression in H4IIE cells; assay type: cell-based, rat; settings: for GST Ya (α) induction: H4IIE cells
Protocol: Western Blot Analysis Glutathione S-transferase Expression. Cultured H4IIE rat hepatoma cells were treated with test agent with various concentrations or various time points. […] Cells were harvested using SDS lysis buffer (20 mM Tris-Cl, pH 6.8, containing 0.4% SDS (w/v), 4% glycerol, 0.24 M β-mercaptoethanol, and 0.5% bromphenol) and the lysates were boiled for 5 minutes, then stored at -20° C. An aliquot of lysate was used for protein determination using a bicichoninic acid protein assay kit with BSA as a standard. Equivalent amounts of protein were electrophoresed by SDS-PAGE on precast 12.5% Tris-glycine acrylamide gels (Novex, San Diego, Calif.), then transferred to polyvinylidene difluoride (PDVF) membranes. Nonspecific binding sites were blocked with 10% nonfat dry milk and blotting was performed with goat polyclonal antirat GSTYa (α class) IgG or antirat, GSTYb (μ class) IgG and analyzed by alkaline phosphatase-conjugated antigoat IgG secondary antibody (Oxford Biomed Research, Inc.) and quantified using an AP 20 Alkaline Phosphatase Kit detection system (Oxford Biomed Research, Inc.).
Induction of Expression of Glutathione S-transferase Ya (α-type) and Yb (μ-type) in Cell Cultures. […] To date, the superfamily of mammalian cytosolic GST isozymes has been defined genetically to consist of four classes; α, μ, π, and θ, which differ in tissue-specificexpression and distribution, as well as substrate specificity. […] Cultured H4IIE cells were treated either with 10 μM of 4'-BF (FIG. 7B) or sulforaphane for 0, 2, 4, 8, 16, 24, and 48 hours for a time-dependent study, or with 0.16, 0.8, 4, 10, 20, and 50 μM of 4'-BF (FIG. 7A) or sulforaphane for 24 hr for a dose-dependent study (FIG. 7A). The expressions of two major detoxification isoforms of GSTs (GST Ya: α-type, and GST Yb: μ-type) mediated by 4'-BF or sulforaphane were investigated in H4EII rat hepatoma cells using Western blotting technique.

[1] = tested on: DMBA-induced mammary tumors; experiment: Inhibition of DMBA-induced mammary carcinogenesis in rats; assay type: in vivo, female Sprague Dawley rat; settings: for tumor multiplicity (FIG. 9): control 2.63; for mammary tumor multiplicity: control 2.75; for mammary tumor incidence: control 88.9%; for tumor incidence (FIG. 9): control 89.5
Protocol: Inhibition of DMBA-induced Mammary Carcinogensis in Rats. On the basis of a 3-week feeding study, maximum tolerated doses were evaluated, and suitable doses were selected for the study of inhibition of DMBA-induced mammary carcinogenesis in rats. Virgin, female Sprague Dawley rats were obtained from Harlan/Sprague-Dawley at 35 days of age. All animals were placed on a diet of Teklad 4% Rat/Mouse chow at this time. After a quarantine period of 1 week, at 42 days of age, the animals were randomized by weight into six groups and placed on the appropriate experimental diet containing 2000 and 4000 mg 4'-bromoflavone/kg diet. At 50 days of age, the animals received a single i.g. dose of 15 mg of DMBA in sesame oil (or vehicle only) following an overnight fast. The rats were maintained on the 4'-bromoflavone diet for one additional week, and then returned to the basal diet without test agent at 57 days of age. During the experiment, all animals were weighed weekly. Palpation for mammary tumors began 3 weeks after the animals received the DMBA, and continued until termination of the study (120 days post DMBA). The date of appearance and location of all tumors was recorded. Animals were observed twice daily to assess their general health. Moribund animals were sacrificed by CO2 asphyxiation. Moribund animals or animals found dead were necropsied immediately. At the termination of the experiment, all mammary tumors were excised and weighed, and mean tumor weight was established. Tumors for Group 2-5 were frozen. The abdominal/inguinal glands of Group 8 were disected free of lymph nodes; one side was frozen, the other side was fixed. Incidence was evaluated with Fisher's exact test and the Logrank test was used for tumor incidence rate. Tumor multiplicity was calculated using Armitage's test for trends in proportions. Latency and tumor weight were evaluated by an unpaired t-test. Survival was analyzed with log-rank analysis.
Inhibition of DMBA-induced Mammary Tumor Carcinogenesis in Rat. Maximum dose tolerance (MDT) studies (data not included) were performed prior to conducting the chemopreventative studies of 4'-BF in animals. Briefly, a test agent was examined in a three-week study to determine the maximum dose that can be administered without causing suppression of body weight gain or inducing other gross manifestations of toxicity and to determine the effective dose in term of induction of phase II detoxifying enzymes. According to the MDT study, two doses of 4'-BF (2000 and 4000 mg/kg diet) were used for the chemopreventative studies.

H4IIE rat hepatoma cells = experiment: Toxicity in H4IIE rat hepatoma cells; assay type: cell-based

O=c1cc(-c2ccc(Br)cc2)oc2ccccc12 [4'-Bromoflavone]
maximum induction time, GST Ya (GST Ya (α class); 10 μM, 0-48 h): 16 to 24 h | maximum induction concentration, GST Ya (GST Ya (α class); 0.16-50 μM, 24 h): 10 to 20 µM | GST Ya (α) induction (GST Ya (α class)): effectively induced | GST Ya (α) induction (GST Ya (α class); listed as 4'-BF): induced by 4'-BF in a time, dose-dependent manner | tumor multiplicity (FIG. 9) ([1]; 2000 mg/kg diet): 0.65 tumors/rat | mammary tumor multiplicity ([1]; 2000 mg/kg diet): 0.20 | mammary tumor incidence ([1]; 2000 mg/kg diet): 25% | tumor incidence (FIG. 9) ([1]; 2000 mg/kg diet): 30% | tumor multiplicity (FIG. 9) ([1]; 4000 mg/kg diet): 0.20 tumors/rat | mammary tumor multiplicity ([1]; 4000 mg/kg diet): 0.15 | mammary tumor incidence ([1]; 4000 mg/kg diet): 15% | tumor incidence (FIG. 9) ([1]; 4000 mg/kg diet): 20% | tumor latency ([1]; 2000 or 4000 mg/kg diet, listed as 4'-BF): enhanced greatly; also recorded: greatly increased the tumor latency (P<0.001); also recorded: significantly increased (P<0.01) | incidence and multiplicity of mammary tumors ([1]; DMBA-induced): significantly inhibited | toxicity in H4IIE cells (H4IIE rat hepatoma cells): no observed toxicity

Reference: US6046231A, “Use of 4'-bromoflavone in a cancer chemopreventative composition and method” (The Board of Trustees of the University of Illinois, priority 1999, dated 2000)
